In this experiment the target is T1, Trypanosoma cruzi trans-sialidase (TcTS) (Trypanosoma cruzi, UniProt Q26966).
T1 construct: 6xHis (N); made in house; host or cells: E. coli TOP10 or BL21(DE3)
Briefly: Affinity of TcTS for the sialic acid donor substrates (kinetic incubations with lactose as acceptor). Type of experiment: biochemical. To be noted: TcTS 4.5 mU/ml; 0.1-10.0 mM 4MU-Neu5Ac as donor; 1 mM lactose as acceptor. As to the method:
In kinetic experiments with partially purified TcTS, 4MU-Neu5Ac or industrially available κ-casein-derived glycomacropeptide (GMP) as donors and lactose as acceptor, the formation of 3′SL was quantitatively determined after 15 and 30 min of incubation, making use of high-pH anion-exchange chromatography with pulsed amperometric detection (HPAEC-PAD). For both donors, the optimal temperature for the transfer reaction, deduced from a series of temperatures ranging from 15-50° C., with increments of 5° C., turned out to be 25° C., which is similar to the optimal temperature reported in literature (Scudder et al., J. Biol. Chem. 268: 9886-9891, 1993).
The affinity of TcTS for the sialic acid donor substrates 4MU-Neu5Ac and GMP was tested by performing incubations (4.5 mU/ml) with an appropriate range of these substrates and a fixed concentration of lactose as acceptor.

The term Km denotes the concentration of substrate that gives half-maximal velocity.

T1 sequence (Q26966 entry or part of it): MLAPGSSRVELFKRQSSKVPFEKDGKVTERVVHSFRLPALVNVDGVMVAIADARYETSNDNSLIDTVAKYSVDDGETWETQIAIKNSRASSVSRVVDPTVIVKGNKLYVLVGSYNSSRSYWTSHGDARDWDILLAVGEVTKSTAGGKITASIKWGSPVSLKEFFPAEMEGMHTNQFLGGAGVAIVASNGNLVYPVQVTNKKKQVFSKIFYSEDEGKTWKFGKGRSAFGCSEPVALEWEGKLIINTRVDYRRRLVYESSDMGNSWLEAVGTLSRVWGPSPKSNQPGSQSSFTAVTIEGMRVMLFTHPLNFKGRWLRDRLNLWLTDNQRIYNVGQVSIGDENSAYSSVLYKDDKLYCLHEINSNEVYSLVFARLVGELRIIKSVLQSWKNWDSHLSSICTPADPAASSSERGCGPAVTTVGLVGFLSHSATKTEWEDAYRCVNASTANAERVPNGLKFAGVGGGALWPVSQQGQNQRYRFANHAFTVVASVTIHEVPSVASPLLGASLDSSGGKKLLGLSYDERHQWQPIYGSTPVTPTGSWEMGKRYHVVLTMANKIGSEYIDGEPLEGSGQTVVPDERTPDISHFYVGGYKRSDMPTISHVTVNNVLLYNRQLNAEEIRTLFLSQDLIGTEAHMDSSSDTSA

With `CC(=O)N[C@H]1[C@H]([C@H](O)[C@H](O)CO)OC(Oc2ccc3c(C)cc(=O)oc3c2)(C(=O)O)C[C@@H]1O` (stereo partly drawn) [4MU-Neu5Ac, 2′-(4-methylumbelliferyl)-α-N-acetylneuraminic acid], the Km was 1650 µM and the Vmax amounted to 1.5 U/mg.

For the origin of these results see US9539270B2, “Methods for providing sialylated oligosaccharides” (priority 2011, dated 2017).
